Results on 27 molecules are retold here after PubChem BioAssay (NCI).

Where “and” joins values, the source holds several entries; their conditions need not be identical. Equal entries are not always repeated.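 Method: 48-hour compound exposure of cells in 96-well plates, five concentrations, linear interpolation of endpoints. The concentration for 50% growth inhibition is given as GI50. TGI: concentration producing complete growth inhibition.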

Test systems include PC-3 prostate; MDA-MB-231 breast; SF-268 CNS; HCT-116 colon.
Common to all, as to assay: inhibition of tumour cell growth, NCI panel, 48 h

As to `O=c1[nH]ccc2nc(N3CCC(O)CC3)nc(Nc3cccc(C(F)(F)F)c3)c12`, the GI50 with PC-3 prostate was 2.29 µM; with MDA-MB-231 breast, 12.2 µM; in the assay with SF-268 CNS it was 3.06 µM; in the assay on HCT-116 colon it was 0.88 µM. The TGI is 13 µM in the assay with PC-3 prostate, over 100 µM with MDA-MB-231 breast, 35.3 µM in the assay on SF-268 CNS and 12.3 µM in the assay with HCT-116 colon.

Regarding `C[C@@H]1N=C(c2ccc(Br)cc2)Nc2nc3ccccn3c2C1=O`, the GI50 with PC-3 prostate is 5.7 µM; in the assay with MDA-MB-231 breast it was 6.08 µM; in the assay on SF-268 CNS, 17.2 µM; in the assay with HCT-116 colon, 4.04 µM. The TGI with PC-3 prostate, in the assay on MDA-MB-231 breast, in the assay with SF-268 CNS and in the assay with HCT-116 colon was over 100 µM throughout.

Consider `c1cc(OCCN2CCCCC2)ccc1CNc1ccc2nc(CCC3CCCCC3)[nH]c2c1`, for which the GI50 with PC-3 prostate was 1.6 µM; with MDA-MB-231 breast, 1.58 µM; in the assay on SF-268 CNS it was 2.08 µM; in the assay with HCT-116 colon it was 1.64 µM. Further, the TGI in the assay with PC-3 prostate turned out to be 3.71 µM; with MDA-MB-231 breast, 3.02 µM; in the assay with SF-268 CNS, 5.43 µM; with HCT-116 colon, 3.57 µM.

Take `CCOc1ccc(Nc2nc(-c3ccc4c(c3)NC(=O)CO4)cs2)cc1`: the GI50 in the assay with PC-3 prostate was 3.04 µM; in the assay with MDA-MB-231 breast it was 21.1 µM; with SF-268 CNS, 36.7 µM; with HCT-116 colon it was 4.01 µM. In addition, the TGI was 32.8 µM in the assay with PC-3 prostate, over 100 µM in the assay with MDA-MB-231 breast, over 100 µM in the assay with SF-268 CNS and over 100 µM with HCT-116 colon.

Consider `CCCN1CCN(c2ccc3nc(-c4ccc5nc(-c6cc(OC)ccc6OC)[nH]c5c4)[nH]c3c2)CC1`, for which the GI50 was 1.75 µM with PC-3 prostate, 1.74 µM with MDA-MB-231 breast, 18.6 µM with SF-268 CNS and 1.74 µM in the assay with HCT-116 colon. The TGI is 4.04 µM with PC-3 prostate, 3.27 µM in the assay on MDA-MB-231 breast, 43 µM with SF-268 CNS and 3.16 µM in the assay on HCT-116 colon.

On to `COc1ccc(C2=C(c3ccc(OC)c(OC)c3)C(=O)OC2)cc1`, for which the GI50 with PC-3 prostate is under 0.0301 µM; in the assay on MDA-MB-231 breast, 0.682 µM; in the assay with SF-268 CNS, 0.106 µM; in the assay on HCT-116 colon, under 0.01 µM. For the same molecule, the TGI in the assay on PC-3 prostate was over 100 µM; in the assay with SF-268 CNS, over 91.7 µM; with HCT-116 colon, over 100 µM.

Turning to `COc1cc2cc(C(=O)Nc3cc(N)c4ccccc4c3CCCl)[nH]c2c(OC)c1OC`, the GI50 in the assay on PC-3 prostate was 0.0252 µM; in the assay with SF-268 CNS, 0.017 µM; in the assay with HCT-116 colon, 0.0177 µM. Further, the values for the TGI in the assay with PC-3 prostate, with SF-268 CNS and in the assay with HCT-116 colon were 1.59 µM, 6.87 µM and 5.83 µM, respectively.

`Cn1nc(-c2ccccc2)nc1[N+](=O)[O-]`: the TGI in the assay with PC-3 prostate, in the assay with MDA-MB-231 breast, with SF-268 CNS and in the assay with HCT-116 colon was over 10 µM each time.

On to `Nc1cc(-c2cccc(OC(F)(F)F)c2)nc2ccc(N3CCCC3)cc12`, for which the GI50 was 0.0455 µM and 0.0429 µM and 0.0372 µM in the assay with PC-3 prostate; 0.0385 µM and 0.0353 µM and 0.0356 µM in the assay on MDA-MB-231 breast; 0.0819 µM and 0.0837 µM and 0.0784 µM in the assay with SF-268 CNS; 0.0384 µM and 0.0323 µM and 0.0258 µM in the assay with HCT-116 colon. For the same molecule, the TGI with PC-3 prostate was 26.9 µM and > 100 µM; with MDA-MB-231 breast it was 7.26 µM and > 38.6 µM and 56.9 µM; in the assay with SF-268 CNS, 22 µM and > 100 µM.

Take `CC1(C)CC(n2cnc(-c3ccc(F)cc3)c2-c2ccnc(N)n2)CC(C)(C)N1`: the GI50 in the assay with PC-3 prostate is over 25 µM; in the assay on MDA-MB-231 breast, over 22.7 µM; in the assay with SF-268 CNS, 18.7 µM; in the assay on HCT-116 colon, 15.1 µM. The TGI with PC-3 prostate, in the assay with MDA-MB-231 breast, in the assay on SF-268 CNS and in the assay on HCT-116 colon was over 25 µM each time.

In the case of `c1ccc2c(c1)-c1ccccc1C2N1CC2CCC(CC2)C1`, the TGI in the assay with PC-3 prostate worked out at 72.1 µM; in the assay with MDA-MB-231 breast, 37.4 µM; with SF-268 CNS it was 37.8 µM; in the assay with HCT-116 colon, 46.9 µM.

For the molecule `Cc1cc2cc3c(C)cc(=O)oc3c(C)c2o1`, the TGI with PC-3 prostate, in the assay on MDA-MB-231 breast, in the assay with SF-268 CNS and in the assay on HCT-116 colon was over 100 µM throughout.

As to `Cc1cc(-c2nnc(N)nc2-c2ccc(F)cc2)cc(Cl)n1`, the GI50 with PC-3 prostate was 76.9 µM; with MDA-MB-231 breast, 70.2 µM; in the assay on SF-268 CNS it was over 100 µM; with HCT-116 colon, 75.4 µM. In addition, the TGI with PC-3 prostate, in the assay on MDA-MB-231 breast, in the assay on SF-268 CNS and in the assay with HCT-116 colon was over 100 µM throughout.

As for `COc1ccc2c(CN3CCC[C@H]3C(=O)O)cc3cc4c(cc3c2c1)OCO4`, the GI50 with MDA-MB-231 breast was 23.5 µM; with SF-268 CNS it was 9.87 µM; in the assay on HCT-116 colon, 4.8 µM. In addition, the TGI in the assay on MDA-MB-231 breast is over 100 µM; with SF-268 CNS, 67.1 µM; with HCT-116 colon, over 100 µM.

Consider `CN(C)C1CCN(C(=O)c2ccc(NC(=O)Nc3ccc(-c4nc(N5CCOCC5)nc(N5CCOCC5)n4)cc3)cc2)CC1`, for which the GI50 with PC-3 prostate is < 0.01 µM and 0.0108 µM and 0.0309 µM; with MDA-MB-231 breast, < 0.0115 µM and 0.0128 µM and 0.0168 µM; with SF-268 CNS, 0.0229 µM and 0.0207 µM and 0.0434 µM; in the assay on HCT-116 colon, 0.0289 µM and 0.0441 µM and 0.0359 µM. Besides, the TGI in the assay on PC-3 prostate is 0.407 µM and 0.216 µM and 1.06 µM; in the assay with MDA-MB-231 breast, 1.71 µM and 2.5 µM and 0.286 µM; in the assay with HCT-116 colon, 5.91 µM and 2.5 µM and 2.8 µM.

For `O=P([O-])(O)OP(=O)([O-])O.[NH-][C@@H]1CCCC[C@H]1[NH-].[Pt+4]`, the GI50 with PC-3 prostate was > 100 µM and 20.3 µM; in the assay on MDA-MB-231 breast it was over 100 µM; in the assay with SF-268 CNS, 60.6 µM and 6.27 µM; with HCT-116 colon it was 5.01 µM and 2.61 µM. The TGI with PC-3 prostate, with MDA-MB-231 breast, in the assay on SF-268 CNS and in the assay on HCT-116 colon was over 100 µM throughout.

With `COc1cc(C(c2cc3c(cc2O)OCO3)N2CCCCC2)cc(OC)c1OC` (centres undefined), the TGI came to 30.6 µM in the assay on PC-3 prostate, 29.3 µM in the assay on MDA-MB-231 breast, 31.5 µM in the assay on SF-268 CNS and 30.4 µM in the assay on HCT-116 colon.

`NC(=N\N=C/c1cccc([N+](=O)[O-])c1)/C(N)=N\N=C/c1cccc([N+](=O)[O-])c1`: the GI50 in the assay on PC-3 prostate, with MDA-MB-231 breast, in the assay on SF-268 CNS and with HCT-116 colon was over 100 µM each time. The TGI in the assay with PC-3 prostate, with MDA-MB-231 breast, in the assay on SF-268 CNS and in the assay on HCT-116 colon was over 100 µM each time.

Regarding `C=CCN1C=CC(=O)[C@H](O[Si](C)(C)C(C)(C)C)[C@@H]1/C=C/c1ccccc1`, the values for the GI50 in the assay on MDA-MB-231 breast, in the assay with SF-268 CNS and with HCT-116 colon were 14.6 µM, 15.1 µM and 6.96 µM, respectively. The results for the TGI in the assay on MDA-MB-231 breast, with SF-268 CNS and in the assay with HCT-116 colon were 29.8 µM, 30.9 µM and 19.9 µM, respectively.

For `COc1cc2c(cc1OCCCCCCN1CCN(c3ncnc4ccccc34)CC1)N=CC1CCCN1C2=O` (centres undefined), the GI50 in the assay on PC-3 prostate was 0.0508 µM; in the assay on MDA-MB-231 breast, 0.0425 µM; with SF-268 CNS, 0.201 µM; in the assay on HCT-116 colon, 0.055 µM. The TGI in the assay with PC-3 prostate came out at 0.742 µM; in the assay with MDA-MB-231 breast, 0.394 µM; with SF-268 CNS, 3.48 µM; in the assay on HCT-116 colon, 0.282 µM.

Take `O=C(Nc1cc[c]([Sb](=[O])([OH])[OH])cc1)c1ccccc1`: the GI50 in the assay on PC-3 prostate, in the assay on MDA-MB-231 breast, in the assay with SF-268 CNS and in the assay with HCT-116 colon was over 100 µM in each case. The TGI in the assay on PC-3 prostate, in the assay on MDA-MB-231 breast, in the assay on SF-268 CNS and in the assay with HCT-116 colon was over 100 µM throughout.

`O=C1NC(=S)NC(=O)C1=Cc1cccc2cc3ccccc3cc12`: the TGI with PC-3 prostate came to 3.3 µM; with MDA-MB-231 breast, 3.69 µM; in the assay on SF-268 CNS, 4.73 µM; in the assay on HCT-116 colon it was 3.74 µM.

Take `CC1=C2C[C@H]3[C@@H](CC=C4C[C@@H](O)CC[C@@]43C)[C@@H]2CC[C@]12O[C@@H]1C[C@H](C)CN[C@H]1[C@H]2C`: the GI50 in the assay on PC-3 prostate was 22.1 µM and 20.2 µM; in the assay on MDA-MB-231 breast, 17.8 µM and 23.7 µM; in the assay with SF-268 CNS, 21.2 µM and 23.7 µM; with HCT-116 colon it was 10.1 µM and 16.6 µM. For the same molecule, the TGI in the assay with PC-3 prostate is 50 µM and 59.6 µM; in the assay on MDA-MB-231 breast, 42.6 µM and 49.7 µM; in the assay on SF-268 CNS, 50 µM and 50.9 µM; in the assay with HCT-116 colon, 24.7 µM and 31.8 µM.

For `COc1cc2c(Oc3ccc4[nH]c(C)cc4c3F)ccnc2cc1OCC1(N)CC1`, the GI50 in the assay with PC-3 prostate is 1.36 µM; in the assay with MDA-MB-231 breast, 1.8 µM; in the assay on SF-268 CNS it was 1.39 µM; in the assay on HCT-116 colon, 0.745 µM. Besides, the TGI in the assay on PC-3 prostate was found to be 13.4 µM; in the assay with MDA-MB-231 breast it was 4.61 µM; in the assay with SF-268 CNS, 12.9 µM; in the assay on HCT-116 colon, 10.6 µM.

Regarding `CC(C)CNc1nc(-c2ccccc2)nc2ccccc12`, the GI50 was 17.1 µM in the assay with PC-3 prostate, 18.3 µM with SF-268 CNS and 13.8 µM in the assay on HCT-116 colon. In addition, the TGI came out at 34.8 µM in the assay with PC-3 prostate, 37.4 µM with SF-268 CNS and 26.7 µM in the assay on HCT-116 colon.

Consider `Cc1cc(N2CCCC2)nc(NC2CCCC(Nc3ccnc4cc(Cl)ccc34)C2)n1` (centres undefined), for which the GI50 in the assay with SF-268 CNS is 1.19 µM; in the assay on HCT-116 colon, 0.442 µM. In addition, the results for the TGI in the assay on SF-268 CNS and in the assay with HCT-116 colon were 3.46 µM and 1.68 µM, respectively.

With `C=CCN(CC=C)C(=O)c1cc(C)nc2c1c(=O)n(-c1ccccc1)c(=O)n2CC(O)CN1CCN(c2ncccn2)CC1` (centres undefined), the GI50 in the assay on MDA-MB-231 breast is over 100 µM; with SF-268 CNS, 17.2 µM; in the assay on HCT-116 colon, over 100 µM. Also, the TGI in the assay with MDA-MB-231 breast, in the assay on SF-268 CNS and in the assay on HCT-116 colon was over 100 µM throughout.
